Data reported in patent US20170087174A1, “COMBINATION THERAPY REGIMEN FOR TREATMENT OF HCV” (JANSSEN PHARMACEUTICALS, INC., priority 2015, published 2017).
Read-outs that look alike come from different tables or passages of the source.

Legend:
[1] = Phase-1 drug-drug interaction study in healthy volunteers (Compound (III) 800 mg, SMV 150 mg, Odalasvir 150 mg loading then 50 mg, once daily): plasma PK; assay type: in vivo, human; conditions: both sexes, human, in vivo; for AUC0-24: read-out: AUC0-24; for Cmax: read-out: Cmax
Source text: The following daily doses were employed:

[2] = PK of single agents vs fixed dose combinations (FDC), single oral dose in healthy volunteers; assay type: in vivo, human; conditions: for Cmax: read-out: Cmax (mean ± SD); for AUC(0-t): read-out: AUClast (mean ± SD); for AUC(0-inf): read-out: AUC∞ (mean ± SD)
Protocol: SMV (100 mg), ODV (50 mg), and Compound (III) (800 mg) were administered as three different formulations or together as single doses in vivo to healthy volunteers. The arms of the study included: • Arm 1 (Reference Arm): Single oral doses of single agents, one SMV 100-mg capsule, one ODV 50-mg tablet as granule layered solid dispersion with copovidone and poloxamers, and two Compound (III) 400-mg tablets, administered together. • Arm 2: Single oral dose of fixed dose combination (FDC02): SMV 100 mg+ODV 50 mg as a spray dried solid dispersion with HPMC-AS L in a ratio ODV/HPMC-AS L 1/1 w/w+Compound (III) 800 mg • Arm 3: Single oral dose of fixed dose combination (FDC04): SMV 100 mg+ODV 50 mg as a spray dried solid dispersion with HPMC-AS L in a ratio ODV/HPMC-AS L 1/3 w/w+Compound (III) 800 mg • Arm 4: Single oral dose of fixed dose combination (FDC01): SMV 100 mg+ODV 50 mg as a spray dried solid dispersion with copovidone and poloxamers+Compound (III) 800 mg
PK parameters, including Cmax, tmax, AUClast, and AUC∞ were measured for Compound (III), ODV, SMV, and metabolites Compound A-I and Compound A-3 for each Arm of the study. Arms that included fixed dose combinations (FDC) (Arm 2, Arm 3, and Arm 4) were then compared to a single oral dose (Arm 1, the reference Arm). Table 9, Table 10, Table 11, Table 12 and Table 13 display relevant PK parameters and FIG. 9, FIG. 10, FIG. 11, FIG. 12, and FIG. 13 depict the plasma concentration over time of SMV, ODV, Compound A-1, and Compound A-3 for each Arm of the study.

P-gp = P-gp (Homo sapiens, UniProt P08183); conditions: in vitro; cited from earlier work
OATP1B1 = target: T1, OATP1B1 (Homo sapiens, UniProt Q9Y6L6); conditions: in vitro; cited from earlier work
T1 sequence (Q9Y6L6 1-691): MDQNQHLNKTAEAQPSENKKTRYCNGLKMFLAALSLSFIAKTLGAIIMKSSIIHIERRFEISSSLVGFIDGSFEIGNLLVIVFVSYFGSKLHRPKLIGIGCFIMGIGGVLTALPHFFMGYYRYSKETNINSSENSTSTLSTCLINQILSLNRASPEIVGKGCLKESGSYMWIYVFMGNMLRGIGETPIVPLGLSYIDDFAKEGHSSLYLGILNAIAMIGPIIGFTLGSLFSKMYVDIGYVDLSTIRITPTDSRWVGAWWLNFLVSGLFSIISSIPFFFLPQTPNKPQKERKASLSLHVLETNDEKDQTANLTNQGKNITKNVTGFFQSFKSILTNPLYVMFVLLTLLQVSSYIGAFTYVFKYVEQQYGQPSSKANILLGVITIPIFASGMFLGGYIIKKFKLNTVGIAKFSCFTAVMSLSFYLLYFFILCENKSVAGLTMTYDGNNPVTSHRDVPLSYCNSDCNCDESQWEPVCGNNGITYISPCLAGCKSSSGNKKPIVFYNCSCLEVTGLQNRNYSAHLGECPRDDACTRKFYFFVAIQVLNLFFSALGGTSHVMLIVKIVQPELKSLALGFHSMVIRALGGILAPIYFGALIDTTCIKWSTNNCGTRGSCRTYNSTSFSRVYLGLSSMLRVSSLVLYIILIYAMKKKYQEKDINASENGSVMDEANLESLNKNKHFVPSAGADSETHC

[3] = test system: CYP (cytochrome P450 enzymes); assay: CYP inhibition in vitro
[4] = Group 1, Day 3, Compound (III) alone
[5] = Group 1, Day 13 (Compound (III) + SMV)
[6] = Group 1, Day 23 (Compound (III) + SMV + ODV)
[7] = Group 2, Day 3 (Compound (III) alone)
[8] = Group 2, Day 13 (Compound (III) + SMV)
[9] = Group 2, Day 23 (Compound (III) + SMV + ODV)
[10] = Arm 2 (FDC02) vs reference (Arm 1)
[11] = Arm 3 (FDC04) vs reference (Arm 1)
[12] = Arm 4 (FDC01) vs reference (Arm 1)
[13] = human, in vivo, Arm 1 (reference): single agents together

Chain of P-gp (P08183 whole entry): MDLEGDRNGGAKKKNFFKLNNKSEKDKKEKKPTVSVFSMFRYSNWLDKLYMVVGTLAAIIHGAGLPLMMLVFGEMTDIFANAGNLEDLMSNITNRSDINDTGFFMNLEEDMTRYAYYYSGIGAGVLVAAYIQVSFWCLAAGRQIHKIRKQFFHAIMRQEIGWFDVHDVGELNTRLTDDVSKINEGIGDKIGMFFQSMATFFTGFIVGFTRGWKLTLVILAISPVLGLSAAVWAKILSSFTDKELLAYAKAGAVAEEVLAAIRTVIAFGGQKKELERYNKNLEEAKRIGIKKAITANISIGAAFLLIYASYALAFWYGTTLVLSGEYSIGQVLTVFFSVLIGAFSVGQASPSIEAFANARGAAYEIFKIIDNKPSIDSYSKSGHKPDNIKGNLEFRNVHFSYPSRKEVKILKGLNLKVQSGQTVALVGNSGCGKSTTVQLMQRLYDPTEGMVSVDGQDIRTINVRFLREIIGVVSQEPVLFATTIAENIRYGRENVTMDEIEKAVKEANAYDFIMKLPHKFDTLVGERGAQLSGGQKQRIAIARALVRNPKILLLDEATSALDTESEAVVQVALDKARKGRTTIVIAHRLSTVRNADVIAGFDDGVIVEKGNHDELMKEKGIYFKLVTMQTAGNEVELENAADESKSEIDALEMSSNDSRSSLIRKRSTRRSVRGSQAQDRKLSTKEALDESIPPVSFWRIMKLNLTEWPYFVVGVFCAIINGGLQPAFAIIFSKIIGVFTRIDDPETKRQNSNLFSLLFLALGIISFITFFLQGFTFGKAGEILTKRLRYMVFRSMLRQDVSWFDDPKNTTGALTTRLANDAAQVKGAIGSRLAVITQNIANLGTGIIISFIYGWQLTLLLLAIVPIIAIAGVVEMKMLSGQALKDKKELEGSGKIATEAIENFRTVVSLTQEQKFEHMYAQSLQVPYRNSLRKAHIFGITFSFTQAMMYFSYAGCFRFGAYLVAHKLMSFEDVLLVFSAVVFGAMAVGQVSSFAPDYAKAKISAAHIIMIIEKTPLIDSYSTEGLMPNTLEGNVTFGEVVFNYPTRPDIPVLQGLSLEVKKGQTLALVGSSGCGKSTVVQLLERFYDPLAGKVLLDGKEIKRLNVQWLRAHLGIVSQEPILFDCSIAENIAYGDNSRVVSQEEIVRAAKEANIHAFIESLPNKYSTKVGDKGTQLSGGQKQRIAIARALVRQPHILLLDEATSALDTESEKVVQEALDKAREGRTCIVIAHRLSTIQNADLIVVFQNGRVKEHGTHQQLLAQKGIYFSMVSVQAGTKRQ

With `CC(C)OC(=O)[C@H](C)N[P@](=O)(OC[C@@]1(F)O[C@@H](n2ccc(=O)[nH]c2=O)[C@](C)(O)[C@@H]1O)Oc1ccccc1` [Compound (III), isopropyl ((S)-(((2S,3S,4R,5R)-5-(2,4-dioxo-3,4-dihydropyrimidin-1 (2H)-yl)-2-fluoro-3,4-dihydroxy-4-methyltetrahydrofuran-2-yl)methoxy)(phenoxy)phosphoryl)-L-alaninate] as the compound, how does the AUC0-24 [1, 4] read?
The AUC0-24 was 292 ng·h/mL.

And the Cmax [1, 4]?
The Cmax was 162 ng/mL.

What about the AUC0-24 [1, 5] of the same compound?
The AUC0-24 was 1000 ng·h/mL.

What about the Cmax [1, 5] of the same compound?
The Cmax was 376 ng/mL.

What about the AUC0-24 [1, 6] of the same compound?
Its AUC0-24 is 2090 ng·h/mL.

What about the Cmax [1, 6] of the same compound?
Its Cmax is 747 ng/mL.

What about the AUC0-24 [1, 7] of the same compound?
The AUC0-24 was 325 ng·h/mL.

What about the Cmax [1, 7] of the same compound?
The Cmax was 151 ng/mL.

And the AUC0-24 [1, 8]?
Its AUC0-24 is 1300 ng·h/mL.

What about the Cmax [1, 8] of the same compound?
The Cmax was 516 ng/mL.

And the AUC0-24 [1, 9]?
Its AUC0-24 is 2910 ng·h/mL.

What about the Cmax [1, 9] of the same compound?
Its Cmax is 950 ng/mL.

And the “t1/2term (mean ± SD)” value ([2]; Arm 1 (reference): single agents together)?
The value was 36 ± 6 min.

And the “Least Square Means Ratio, AUClast” value [2, 10]?
Its value is 110.22%.

What about the “Least Square Means Ratio, AUC∞” value [2, 10] of the same compound?
Its value is 111.86%.

And the “Least Square Means Ratio, Cmax” value [2, 10]?
The value was 109.68%.

What about the “t1/2term (mean ± SD)” value ([2]; Arm 2: FDC02) of the same compound?
The value was 42 ± 12 min.

What about the “tmax (median [range])” value ([2]; Arm 2: FDC02) of the same compound?
Its value is 2.00 (0.50-4.00) h.

And the “Least Square Means Ratio, AUClast” value [2, 11]?
Its value is 127.06%.

What about the “Least Square Means Ratio, AUC∞” value [2, 11] of the same compound?
The value was 138.97%.

What about the “Least Square Means Ratio, Cmax” value [2, 11] of the same compound?
The value was 122.40%.

And the “t1/2term (mean ± SD)” value ([2]; Arm 3: FDC04)?
Its value is 42 ± 6 min.

And the “tmax (median [range])” value ([2]; Arm 3: FDC04)?
The value was 2.00 (1.00-4.00) h.

What about the “Least Square Means Ratio, AUClast” value [2, 12] of the same compound?
The value was 151.72%.

What about the “Least Square Means Ratio, AUC∞” value [2, 12] of the same compound?
The value was 144.80%.

And the “Least Square Means Ratio, Cmax” value [2, 12]?
The value was 145.56%.

What about the “t1/2term (mean ± SD)” value ([2]; Arm 4: FDC01) of the same compound?
The value was 36 ± 6 min.

What about the “tmax (median [range])” value ([2]; Arm 4: FDC01) of the same compound?
Its value is 2.00 (1.00-4.00) h.

What about the Cmax ([2]; human, in vivo, Arm 1 (reference): single agents together, SMV 100-mg capsule, ODV 50-mg tablet, two Compound (III) 400-mg tablets) of the same compound?
Its Cmax is 484 ± 177 ng/mL.

What about the AUC(0-t) [2, 13] of the same compound?
Its AUC(0-t) is 1160 ± 497 ng·h/mL.

And the AUC(0-inf) [2, 13]?
The AUC(0-inf) was 1180 ± 524 ng·h/mL.

What about the Tmax ([2]; human, in vivo, Arm 1 (reference): single agents together, read-out: tmax (median [range])) of the same compound?
Its Tmax is 120 min.

And the Cmax ([2]; human, in vivo, Arm 2: FDC02, SMV 100 mg + ODV 50 mg (ODV/HPMC-AS L 1/1 w/w) + Compound (III) 800 mg)?
The Cmax was 544 ± 225 ng/mL.

And the AUC(0-t) ([2]; human, in vivo, Arm 2: FDC02)?
Its AUC(0-t) is 1260 ± 411 ng·h/mL.

And the AUC(0-inf) ([2]; human, in vivo, Arm 2: FDC02)?
Its AUC(0-inf) is 1300 ± 420 ng·h/mL.

What about the Cmax ([2]; human, in vivo, Arm 3: FDC04, SMV 100 mg + ODV 50 mg (ODV/HPMC-AS L 1/3 w/w) + Compound (III) 800 mg) of the same compound?
The Cmax was 617 ± 295 ng/mL.

What about the AUC(0-t) ([2]; human, in vivo, Arm 3: FDC04) of the same compound?
The AUC(0-t) was 1440 ± 450 ng·h/mL.

What about the AUC(0-inf) ([2]; human, in vivo, Arm 3: FDC04) of the same compound?
The AUC(0-inf) was 1580 ± 434 ng·h/mL.

What about the Cmax ([2]; human, in vivo, Arm 4: FDC01, SMV 100 mg + ODV 50 mg (copovidone and poloxamers) + Compound (III) 800 mg) of the same compound?
The Cmax was 745 ± 381 ng/mL.

And the AUC(0-t) ([2]; human, in vivo, Arm 4: FDC01)?
The AUC(0-t) was 1830 ± 866 ng·h/mL.

And the AUC(0-inf) ([2]; human, in vivo, Arm 4: FDC01)?
Its AUC(0-inf) is 1790 ± 889 ng·h/mL.

What about the “P-gp inhibition (in words)” value (P-gp) of the same compound?
Its value is “no in vitro inhibition”.

What about the “OATP1B1 inhibition (in words)” value (OATP1B1) of the same compound?
The value was “no in vitro inhibition”.

And the IC50 [3]?
The IC50 was over 26 µM.

What about the “CYP inhibition potential (in words)” value ([3]; on any CYP) of the same compound?
Its value is “limited CYP inhibition potential”.
